Data from patent publication US20220378923A1, “BET DEGRADER” (KYOWA KIRIN CO., LTD., priority 2019, published 2022).

System: MYC mRNA expression in SU-DHL-4 cells
Assay: Suppressive effect on MYC mRNA expression (Test Example 2)
Format: cell-based, human
Conditions: test compound 100 nmol/L, 6 hours, qRT-PCR corrected by ACTB, GAPDH; for inhibition at 0.1 µM: Homo sapiens, HPRT1, read-out: Suppression Rate of MYC mRNA Expression (%)
Outline: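 SU-DHL-4 cells were treated for 6 h at 37 °C with compound (0.1% DMSO final). MYC mRNA was measured by TaqMan qRT-PCR and normalised to the geometric mean of ACTB, GAPDH and HPRT1. Suppression was calculated relative to untreated wells.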

Row | SMILES | inhibition at 0.1 µM | Suppression Rate of MYC mRNA Expression (%) (HPRT1)
1 | CCC(=O)N1c2ccccc2[C@H](Nc2ccc(NC(=O)COCC(=O)Nc3ccc(C4=NCc5nnc(C)n5-c5sc(C)c(C)c54)cc3)cc2)C[C@@H]1C [Compound 14d, N-(4-(((2S,4R)-2-Methyl-1-propionyl-1,2,3,4-tetrahydroquinolin-4-yl)amino)phenyl)-2-(2-oxo-2-((4-(2,3,9-trimethyl-6H-thieno[3,2-f][1,2,4]triazolo[4,3-a][1,4]diazepin-4-yl)phenyl)amino)ethoxy)acetamide] | 97.4% | 
2 | Cc1sc2c(c1C)C(c1ccc(NC(=O)C#CCNC(=O)c3ccc(C4=NCc5nnc(C)n5-c5sc(C)c(C)c54)cc3)cc1)=NCc1nnc(C)n1-2 [Compound 14e, N-(4-Oxo-4-((4-(2,3,9-trimethyl-6H-thieno[3,2-f][1,2,4]triazolo[4,3-a][1,4]diazepin-4-yl)phenyl)amino)but-2-yn-1-yl)-4-(2,3,9-trimethyl-6H-thieno[3,2-f][1,2,4]triazolo[4,3-a][1,4]diazepin-4-yl)benzamide] | 96.7% | 
3 | CCC(=O)N1c2ccccc2[C@H](Nc2ccc(NC(=O)CNC(=O)Nc3ccc(C4=NCc5nnc(C)n5-c5sc(C)c(C)c54)cc3)cc2)C[C@@H]1C [Compound 14f, N-(4-(((2S,4R)-2-Methyl-1-propionyl-1,2,3,4-tetrahydroquinolin-4-yl)amino)phenyl)-2-(3-(4-(2,3,9-trimethyl-6H-thieno[3,2-f][1,2,4]triazolo[4,3-a][1,4]diazepin-4-yl)phenyl)ureido)acetamide] | 97.3% | 
4 | Cc1sc2c(c1C)C(c1ccc(C(=O)N3CCC(NC(=O)c4ccc(C5=N[C@@H](CC(=O)OC(C)(C)C)c6nnc(C)n6-c6sc(C)c(C)c65)cc4)CC3)cc1)=NCc1nnc(C)n1-2 [Compound 14p, tert-Butyl (S)-2-(2,3,9-trimethyl-4-(4-((1-(4-(2,3,9-trimethyl-6H-thieno[3,2-f][1,2,4]triazolo[4,3-a][1,4]diazepin-4-yl)benzoyl)piperidin-4-yl)carbamoyl)phenyl)-6H-thieno[3,2-f][1,2,4]triazolo[4,3-a][1,4]diazepin-6-yl)acetate] | 97.6% | 
5 | CCC(=O)N1c2ccccc2[C@H](Nc2ccc(-c3cnn(CCNC(=O)c4ccc(Cn5c(C(=O)OCCN(C)C)cc6c5CCCC6=O)cc4)c3)cc2)C[C@@H]1C [Compound 15d, 2-(Dimethylamino)ethyl 1-(4-((2-(4-(4-(((2S,4R)-2-methyl-1-propionyl-1,2,3,4-tetrahydroquinolin-4-yl)amino)phenyl)-1H-pyrazol-1-yl)ethyl)carbamoyl)benzyl)-4-oxo-4,5,6,7-tetrahydro-1H-indole-2-carboxylate] | 96.9% | 
6 | CCC(=O)N1c2ccccc2[C@H](Nc2ccc(NC(=O)CCCC(=O)Nc3cccc(Oc4ccc(NS(=O)(=O)CC)cc4-c4cn(C)c(=O)cc4OC)c3)cc2)C[C@@H]1C [Compound 16j, N^1-(3-(4-(Ethylsulfonamide)-2-(4-methoxy-1-methyl-6-oxo-1,6-dihydropyridin-3-yl)phenoxy)phenyl)-N5-(4-(((2S,4R)-2-methyl-1-propionyl-1,2,3,4-tetrahydroquinolin-4-yl)amino)phenyl)glutaramide] |  | 92.4%
7 | CCC(=O)N1c2ccccc2[C@H](Nc2ccc(NC(=O)CCCC(=O)Nc3cccc(Oc4ccccc4-c4cn(C)c(=O)cc4OC)c3)cc2)C[C@@H]1C [Compound 16m, N^1-(3-(2-(4-Methoxy-1-methyl-6-oxo-1,6-dihydropyridin-3-yl)phenoxy)phenyl)-N5-(4-(((2S,4R)-2-methyl-1-propionyl-1,2,3,4-tetrahydroquinolin-4-yl)amino)phenyl)glutaramide] | 97.1% | 
8 | CCC(=O)N1c2ccccc2[C@H](Nc2ccc(NC(=O)CCCC(=O)Nc3ccc(C(=O)N4CCC(=O)Nc5ccccc54)cc3)cc2)C[C@@H]1C [Compound 16o, N^1-(4-(((2S,4R)-2-Methyl-1-propionyl-1,2,3,4-tetrahydroquinolin-4-yl)amino)phenyl)-N5-(4-(4-oxo-2,3,4,5-tetra hydro-1H-benzo[b][1,4]diazepine-1-carbonyl)phenyl)glutaramide] | 79.1% | 
